# From patent US8829011B2 (Janssen Pharmaceutica NV, priority 2008, dated 2014)
# Where a name gives a salt, the structure may show the parent alone.
# Assays:
# rat 5-HT7a receptor = target: T1, rat 5-HT7a receptor (Rattus norvegicus, UniProt P32305); assay: Affinity for 5-HT7 receptor binding sites (competition radioligand binding, [3H]5-CT); settings: membranes of HEK-293 cells with rat 5-HT7a; 1 nM [3H]5-CT; * = tested as hydrochloride salt
# T1 construct: expressed in transfected cells; host or cells: HEK-293
# Description: (§1) Stock drug solutions (10 mM) were prepared in DMSO (the final assay concentration of DMSO not exceeding 0.4%). Drug dilutions were prepared in assay buffer.
# (§2) Sigmoidal inhibition curves were generated and fitted by nonlinear regression analysis (GraphPad Prism).
# 1. Affinity for 5-HT7 Receptor Binding Sites
# The affinity of the compounds described in this invention for the 5-HT7 receptor binding site was evaluated by single competition radioligand binding assay. The assay was performed on membranes prepared from HEK-293 cells that had been subjected to stable transfection with the rat 5-HT7a receptor (GB: NM022938). Cells were scraped from the culture plates, suspended in Tris-HCl 50 mM pH 7.5 and collected through centrifugation (1000 rpm for 5 min). The cell pellets were homogenized (Polytron, 15 s, setting 5) in 50 mM Tris-HCl (pH 7.5), 5 mM EDTA. Following centrifugation (15,000 rpm for 25 min), membranes (135 μg protein/mL) were resuspended in the same buffer and incubated for 60 min at RT with 1 nM [^3H]5-CT in the presence of increasing concentration of test compounds. Nonspecific binding was defined in the presence of 10 μM 5-HT. Incubation was stopped by rapid filtration using the cell harvester (Packard). Radioactivity was counted in a TopCount-NXT (Packard). Experiments were conducted in triplicate.
# [1] = target: T2, human recombinant 5-HT2B receptor (Homo sapiens, UniProt P41595); assay: Affinity for 5-HT2B receptor binding sites (competitive radioligand binding, [3H]mesulergine); settings: membranes of CHO with h5-HT2B, * = tested as hydrochloride salt
# T2 construct: expressed in transfected cells; host or cells: CHO
# Description: as §1, §2
# (§3) 2. Affinity for 5HT2 Receptor Binding Sites
# (§4) Receptor binding was performed using the human recombinant 5-HT2A (GB: X57830), 5-HT2B (GB: Z36748) and 5-HT2C (GB: M81778) receptors. The affinity of the compounds for the 3 different human 5-HT2 receptor subtypes was evaluated by competitive radioligand binding assays using [^3H]ketanserin (h5-HT2A) or [^3H]mesulergine (h5-HT2B and h5-HT2C). The assays were performed on membranes prepared from NIH3T3 stably transfected with h5-HT2A or CHO stably transfected with h5-HT2B and h5-HT2C.
# [2] = target: T3, human recombinant 5-HT2A receptor (Homo sapiens, UniProt P28223); assay: Affinity for 5-HT2A receptor binding sites (competitive radioligand binding, [3H]ketanserin); settings: membranes of NIH3T3 with h5-HT2A, * = tested as hydrochloride salt
# T3 construct: expressed in transfected cells; host or cells: NIH3T3
# Description: as §1, §2, §3, §4
# [3] = target: T4, human recombinant 5-HT2C receptor (Homo sapiens, UniProt P28335); assay: Affinity for 5-HT2C receptor binding sites (competitive radioligand binding, [3H]mesulergine); settings: membranes of CHO with h5-HT2C, * = tested as hydrochloride salt
# T4 construct: expressed in transfected cells; host or cells: CHO
# T4 sequence (P28335 33-458): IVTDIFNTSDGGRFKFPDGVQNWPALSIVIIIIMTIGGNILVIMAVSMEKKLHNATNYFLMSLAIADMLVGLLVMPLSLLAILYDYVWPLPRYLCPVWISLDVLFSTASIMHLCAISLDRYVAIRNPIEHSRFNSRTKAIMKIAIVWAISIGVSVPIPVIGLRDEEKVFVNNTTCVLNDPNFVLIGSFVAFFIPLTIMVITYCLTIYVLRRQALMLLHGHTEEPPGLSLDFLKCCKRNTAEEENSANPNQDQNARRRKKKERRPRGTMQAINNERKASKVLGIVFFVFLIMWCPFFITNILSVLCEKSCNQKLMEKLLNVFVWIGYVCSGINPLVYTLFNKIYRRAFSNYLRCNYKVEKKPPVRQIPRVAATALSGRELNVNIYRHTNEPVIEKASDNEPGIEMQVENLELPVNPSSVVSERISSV
# Description: as §1, §2, §3, §4
# [4] = target: T5, human recombinant 5-HT6 receptor (Homo sapiens, UniProt P50406); assay: Affinity for 5-HT6 receptor binding sites (competitive radioligand binding, [3H]LSD); settings: membranes of HEK-293 with h5-HT6, * = tested as hydrochloride salt
# T5 construct: expressed in transfected cells; host or cells: HEK-293
# Description: as §1, §2
# 3. Affinity for 5-HT6 Receptor Binding Sites
# Receptor binding was performed using the human recombinant 5-HT6 (GB: BC0794995) receptor. The affinity of the compounds for the human 5-HT6 receptor was evaluated by competitive radioligand binding assays using [^3H]LSD. The assays were performed on membranes prepared from HEK-293 stably transfected with h5-HT6. Non-specific binding was estimated in the presence of 1 μM clozapine.
# T3 sequence (P28223 whole entry): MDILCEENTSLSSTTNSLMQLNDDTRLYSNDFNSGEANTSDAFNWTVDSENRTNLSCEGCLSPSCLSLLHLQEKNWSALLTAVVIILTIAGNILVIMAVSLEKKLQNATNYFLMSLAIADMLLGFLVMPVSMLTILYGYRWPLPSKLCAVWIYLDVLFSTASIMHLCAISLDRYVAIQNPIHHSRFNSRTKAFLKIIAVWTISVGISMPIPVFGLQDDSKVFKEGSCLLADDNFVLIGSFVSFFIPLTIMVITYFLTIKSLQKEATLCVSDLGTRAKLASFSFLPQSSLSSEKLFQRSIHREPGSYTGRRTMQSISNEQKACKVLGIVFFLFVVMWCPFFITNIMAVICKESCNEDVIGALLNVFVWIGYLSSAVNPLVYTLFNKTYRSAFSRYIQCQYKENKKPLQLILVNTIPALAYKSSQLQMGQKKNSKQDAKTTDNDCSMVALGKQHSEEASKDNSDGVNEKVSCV
# T5 sequence (P50406 whole entry): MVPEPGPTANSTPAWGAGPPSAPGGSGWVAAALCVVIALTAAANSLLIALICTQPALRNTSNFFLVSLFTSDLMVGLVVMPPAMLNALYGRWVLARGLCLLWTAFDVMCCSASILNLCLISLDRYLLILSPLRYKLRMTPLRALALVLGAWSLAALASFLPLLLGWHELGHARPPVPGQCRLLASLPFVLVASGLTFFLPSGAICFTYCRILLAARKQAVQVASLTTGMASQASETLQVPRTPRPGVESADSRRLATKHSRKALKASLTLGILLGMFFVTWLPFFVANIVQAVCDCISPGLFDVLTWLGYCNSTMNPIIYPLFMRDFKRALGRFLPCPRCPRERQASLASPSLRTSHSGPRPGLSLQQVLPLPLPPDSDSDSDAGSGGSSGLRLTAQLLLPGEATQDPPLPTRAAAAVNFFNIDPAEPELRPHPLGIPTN
# T1 sequence (P32305 whole entry): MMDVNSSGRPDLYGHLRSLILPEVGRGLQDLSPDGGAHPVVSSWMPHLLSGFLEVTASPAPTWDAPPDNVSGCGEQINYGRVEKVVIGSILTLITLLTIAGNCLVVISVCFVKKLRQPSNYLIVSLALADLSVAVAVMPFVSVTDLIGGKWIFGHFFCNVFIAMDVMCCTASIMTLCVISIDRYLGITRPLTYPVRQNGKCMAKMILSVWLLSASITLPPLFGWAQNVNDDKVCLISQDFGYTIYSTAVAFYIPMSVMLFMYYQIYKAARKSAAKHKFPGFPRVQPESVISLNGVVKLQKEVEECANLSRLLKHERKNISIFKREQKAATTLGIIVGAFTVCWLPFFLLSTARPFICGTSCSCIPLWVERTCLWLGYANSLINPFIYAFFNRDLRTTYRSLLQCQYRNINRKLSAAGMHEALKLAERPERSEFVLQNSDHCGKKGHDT
# T2 sequence (P41595 whole entry): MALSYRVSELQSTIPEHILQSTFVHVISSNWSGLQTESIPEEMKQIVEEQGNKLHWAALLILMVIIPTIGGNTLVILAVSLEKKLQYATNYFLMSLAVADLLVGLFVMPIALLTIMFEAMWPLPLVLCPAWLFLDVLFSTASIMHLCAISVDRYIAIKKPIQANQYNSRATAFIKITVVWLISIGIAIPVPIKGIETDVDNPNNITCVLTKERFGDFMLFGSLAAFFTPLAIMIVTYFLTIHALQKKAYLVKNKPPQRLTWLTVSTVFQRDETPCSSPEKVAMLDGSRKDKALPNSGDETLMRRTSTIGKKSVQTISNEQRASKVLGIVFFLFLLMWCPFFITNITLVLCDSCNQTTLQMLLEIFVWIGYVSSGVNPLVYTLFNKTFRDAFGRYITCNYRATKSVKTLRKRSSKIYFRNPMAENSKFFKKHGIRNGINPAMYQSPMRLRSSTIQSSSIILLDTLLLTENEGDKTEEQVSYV
SMILES,Ki (rat 5-HT7a receptor),Ki [1],Ki [2],Ki [3],Ki [4]
"CCN(CC)c1nc2c(c(-c3ccc(F)cc3)n1)CNCCC2 [Example 15, Diethyl-[4-(4-fluoro-phenyl)-6,7,8,9-tetrahydro-5H-1,3,6-triaza-benzocyclohepten-2-yl]-amine]",> 10000 nM,,,,
"CCN(CC)c1nc2c(c(-c3ccc(C)cc3)n1)CNCCC2 [Example 16, Diethyl-(4-p-tolyl-6,7,8,9-tetrahydro-5H-1,3,6-triaza-benzocyclohepten-2-yl)-amine]",500 nM,320 nM,50 nM,630 nM,
"CCN(CC)c1nc2c(c(-c3ccc(C#N)cc3)n1)CNCCC2 [Example 18, 4-(2-Diethylamino-6,7,8,9-tetrahydro-5H-1,3,6-triaza-benzocyclohepten-4-yl)-benzonitrile]",> 10000 nM,,,,
"COc1ccc(-c2nc(N3CCCCC3)nc3c2CNCCC3)cc1 [Example 21, 4-(4-Methoxy-phenyl)-2-piperidin-1-yl-6,7,8,9-tetrahydro-5H-1,3,6-triaza-benzocycloheptene hydrochloride]",> 10000 nM,,,,
"COc1ccc(-c2nc(N3CCCC3C)nc3c2CCNCC3)cc1 (stereo not shown) [Example 80, 6,7,8,9-tetrahydro-4-(4-methoxyphenyl)-2-(2-methyl-1-pyrrolidinyl)-5H-pyrimido[4,5-d]azepine]",,6 nM,140 nM,42 nM,39 nM
"COc1ccc(-c2nc(N3[C@H](C)CCC[C@@H]3C)nc3c2CCNCC3)cc1 [Example 82, 2-[(2R,6S)-2,6-dimethyl-1-piperidinyl]-6,7,8,9-tetrahydro-4-(4-methoxyphenyl)-5H-pyrimido[4,5-d]azepine]",,3 nM,48 nM,17 nM,35 nM
"C[C@@H]1CCC[C@H](C)N1c1nc2c(c(-c3ccc(F)c(F)c3)n1)CCNCC2 [Example 83, 4-(3,4-difluorophenyl)-2-[(2R,6S)-2,6-dimethyl-1-piperidinyl]-6,7,8,9-tetrahydro-5H-pyrimido[4,5-d]azepine]",,12 nM,131 nM,39 nM,84 nM
"C[C@@H]1CCC[C@H](C)N1c1nc2c(c(-c3ccc(Cl)c(F)c3)n1)CCNCC2 [Example 84, 4-(4-chloro-3-fluorophenyl)-2-[(2R,6S)-2,6-dimethyl-1-piperidinyl]-6,7,8,9-tetrahydro-5H-pyrimido[4,5-d]azepine]",,2 nM,130 nM,18 nM,52 nM
"Cc1ccc(-c2nc(N3[C@H](C)CCC[C@@H]3C)nc3c2CCNCC3)cc1F [Example 85, 2-[(2R,6S)-2,6-dimethyl-1-piperidinyl]-4-(3-fluoro-4-methylphenyl)-6,7,8,9-tetrahydro-5H-pyrimido[4,5-d]azepine]",,2 nM,45 nM,15 nM,31 nM
"Cc1ccc(-c2nc(N3[C@H](C)CCC[C@@H]3C)nc3c2CCNCC3)cn1 [Example 86, 2-[(2R,6S)-2,6-dimethyl-1-piperidinyl]-6,7,8,9-tetrahydro-4-(6-methyl-3-pyridinyl)-5H-pyrimido[4,5-d]azepine]",,9 nM,660 nM,240 nM,80 nM
"C[C@@H]1CCC[C@H](C)N1c1nc2c(c(-c3cnc4ccccc4c3)n1)CCNCC2 [Example 88, 2-[(2R,6S)-2,6-dimethyl-1-piperidinyl]-6,7,8,9-tetrahydro-4-(3-quinolinyl)-5H-pyrimido[4,5-d]azepine]",,64 nM,230 nM,600 nM,12 nM
"COc1ccc(-c2nc(N3[C@H](C)CCC[C@@H]3C)nc3c2CCNCC3)cc1F [Example 89, 2-[(2R,6S)-2,6-dimethyl-1-piperidinyl]-4-(3-fluoro-4-methoxyphenyl)-6,7,8,9-tetrahydro-5H-pyrimido[4,5-d]azepine]",,3 nM,180 nM,33 nM,35 nM
"CC(C)c1ccc(-c2nc(N3[C@H](C)CCC[C@@H]3C)nc3c2CCNCC3)cc1 [Example 91, 2-[(2R,6S)-2,6-dimethyl-1-piperidinyl]-6,7,8,9-tetrahydro-4-[4-(1-methylethyl)phenyl]-5H-pyrimido[4,5-d]azepine]",,6 nM,160 nM,45 nM,41 nM
"Cc1ccc(-c2nc(N3CCS(=O)(=O)CC3)nc3c2CCNCC3)cc1Cl [Example 92, 4-(3-Chloro-4-methyl-phenyl)-2-(1,1-dioxo-1λ^6-thiomorpholin-4-yl)-6,7,8,9-tetrahydro-5H-pyrimido[4,5-d]azepine]",,950 nM,1140 nM,2040 nM,85 nM
"Cc1ccc(-c2nc(N3CCOC[C@@H]3C)nc3c2CCNCC3)cc1Cl [Example 93, 4-(3-chloro-4-methylphenyl)-6,7,8,9-tetrahydro-2-[(3S)-3-methyl-4-morpholinyl]-5H-pyrimido[4,5-d]azepine]",,18 nM,150 nM,28 nM,9 nM
"Cc1ccc(-c2nc(N3CCOC[C@@H]3C)nc3c2CCNCC3)cc1 [Example 94, 6,7,8,9-tetrahydro-2-[(3S)-3-methyl-4-morpholinyl]-4-(4-methylphenyl)-5H-pyrimido[4,5-d]azepine]",,15 nM,25 nM,15 nM,8 nM
"C[C@H]1COCCN1c1nc2c(c(-c3cnc4ccccc4c3)n1)CCNCC2 [Example 95, 6,7,8,9-tetrahydro-2-[(3S)-3-methyl-4-morpholinyl]-4-(3-quinolinyl)-5H-pyrimido[4,5-d]azepine]",,580 nM,150 nM,810 nM,7 nM
"C[C@H]1COCCN1c1nc2c(c(-c3ccc(Cl)cc3)n1)CCNCC2 [Example 96, 4-(4-chlorophenyl)-6,7,8,9-tetrahydro-2-[(3S)-3-methyl-4-morpholinyl]-5H-pyrimido[4,5-d]azepine]",,35 nM,100 nM,69 nM,13 nM
"Cc1ccc(-c2nc(N3CCOC[C@@H]3C)nc3c2CCNCC3)cc1F [Example 97, 4-(3-fluoro-4-methylphenyl)-6,7,8,9-tetrahydro-2-[(3S)-3-methyl-4-morpholinyl]-5H-pyrimido[4,5-d]azepine]",,39 nM,400 nM,92 nM,23 nM
"C[C@H]1COCCN1c1nc2c(c(-c3cc4ccccc4o3)n1)CCNCC2 [Example 98, 4-(2-benzofuranyl)-6,7,8,9-tetrahydro-2-[(3S)-3-methyl-4-morpholinyl]-5H-pyrimido[4,5-d]azepine]",,25 nM,99 nM,140 nM,13 nM
"C[C@@H]1COCCN1c1nc2c(c(-c3cnc4ccccc4c3)n1)CCNCC2 [Example 99, 6,7,8,9-tetrahydro-2-[(3R)-3-methyl-4-morpholinyl]-4-(3-quinolinyl)-5H-pyrimido[4,5-d]azepine]",,280 nM,1440 nM,490 nM,30 nM
"Cc1ccc(-c2nc(N3CCOC[C@H]3C)nc3c2CCNCC3)cc1 [Example 100, 6,7,8,9-tetrahydro-2-[(3R)-3-methyl-4-morpholinyl]-4-(4-methylphenyl)-5H-pyrimido[4,5-d]azepine]",,8 nM,21 nM,4 nM,6 nM
